The values that follow come from patent US20250277012A1 (Protagonist Therapeutics, Inc., priority 2021, published 2025).

Read-outs that look alike come from different tables or passages of the source. Starred links: 1 amine or outer side, 2 acyl side, 3 side chain; linkers in the order of their positions; H or OH if unused. Positions of bridges follow the written chain, without caps; N, C: chain ends. Non-standard residues stand in square brackets, D forms with d. Residues, ends and D or L forms follow the SMILES beside them. Groups on a side chain read outwards from the residue. *: point of attachment. X1 = C[N+](C)(CCNC(=O)CCCCCCCCCCCCCCCCC(=O)O)CC(=O)*; Nva(5-morpholino) = N[C@@H](CCCN1CCOCC1)C(=O)O; X5 = CCCCCCCCCCCCCCCC(=O)NCC[N+](C)(C)CC(=O)*; C18 diacid = O=C(O)CCCCCCCCCCCCCCCCC(=O)*; Dip = N[C@H](C(=O)O)C(c1ccccc1)c1ccccc1; γGlu = O=C(O)[C@H](CCC(=O)[*:2])N[*:1]; Pro(3R-OH) = O=C(O)[C@H]1NCC[C@H]1O; Palmitoyl = CCCCCCCCCCCCCCCC(=O)*; NMeF = CN[C@@H](Cc1ccccc1)C(=O)O; NMeT = CN[C@H](C(=O)O)[C@@H](C)O; NMeE = CN[C@@H](CCC(=O)O)C(=O)O; β3hF = N[C@H](CC(=O)O)Cc1ccccc1; NMeK = CN[C@@H](CCCCN)C(=O)O; αMeK = C[C@](N)(CCCCN)C(=O)O; Isovaleryl = CC(C)CC(=O)*; NMeC = CN[C@@H](CS)C(=O)O; Dap = NC[C@H](N)C(=O)O; AEEA = NCCOCCOCC(=O)O; Ahx = NCCCCCC(=O)O

Assay [1] concerns the target T1, ferroportin (Homo sapiens, UniProt Q9NP59).
T1 sequence (Q9NP59 1-571): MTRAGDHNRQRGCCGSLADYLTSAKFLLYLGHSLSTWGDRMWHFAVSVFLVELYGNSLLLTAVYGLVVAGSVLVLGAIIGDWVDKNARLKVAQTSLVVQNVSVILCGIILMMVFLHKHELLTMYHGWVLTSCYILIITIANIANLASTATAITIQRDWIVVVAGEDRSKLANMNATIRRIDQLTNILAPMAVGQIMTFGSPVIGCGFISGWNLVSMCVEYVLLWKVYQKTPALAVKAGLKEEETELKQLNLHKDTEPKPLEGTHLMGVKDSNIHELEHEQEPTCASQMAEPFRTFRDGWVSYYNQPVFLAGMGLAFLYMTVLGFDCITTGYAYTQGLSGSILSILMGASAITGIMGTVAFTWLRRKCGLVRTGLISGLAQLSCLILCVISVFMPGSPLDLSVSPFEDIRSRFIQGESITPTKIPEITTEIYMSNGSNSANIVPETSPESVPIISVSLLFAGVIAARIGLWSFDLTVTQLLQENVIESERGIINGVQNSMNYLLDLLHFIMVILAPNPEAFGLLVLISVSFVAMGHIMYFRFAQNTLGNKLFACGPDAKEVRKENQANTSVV
The assay can be described thus: T47D cell-based ferroportin internalization assay in presence of mouse serum albumin (MSA). Also noted: a human breast carcinoma adherent cell line which endogenously expresses ferroportin; host or cells: T47D. In a few lines:
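Peptide potency for inducing ferroportin internalization was measured in T47D cells in the presence of serum albumin. Cells grown in RPMI with fetal bovine serum were seeded in 96-well plates at 80-100 k cells per well in 100 ul and rested overnight. Dilution series of test peptides were preincubated 30 min at room temperature, then added to the cells after the medium was aspirated.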

For assay [2], the target named is T1, ferroportin. The assay can be described thus: FPN activity assay: ferroportin-GFP internalization/degradation in HEK293 cells. The class given is cell-based. Details: expressed in transfected cells. The following applies: read-out: FPN IC50. Here is the method: Following internalization, the ferroporin protein is degraded.
A retro inverse peptide is a peptide with a reversed sequence in all D amino acids. An example is that Hy-Glu-Thr-His-NH2 becomes Hy-DHis-DThr-DGlu-NH2. The EC50 of these reference compounds for ferroportin internalization/degradation was determined according to the FPN activity assay described above. These peptides served as control standards.

[3] abbreviates: T47D internalization assay in presence of mouse serum albumin (MSA), Table 6E.
The mark [4] stands for this setting: ferroportin-GFP internalization/degradation, HEK293 cells, Table 6E.
[5] abbreviates: Table 6E, T47D internalization assay with MSA.

For orientation: IC50 means the midpoint of a concentration-inhibition curve. `COC(=O)CC[C@H](NC(=O)CC(C)C)C(=O)N[C@H](C(=O)N[C@@H](Cc1c[nH]cn1)C(=O)N[C@H](C(=O)N1CCC[C@H]1C(=O)N[C@H]1CSSC[C@@H](C(=O)N[C@@](C)(CCCCNC(=O)COCCOCCNC(=O)COCCOCCNC(=O)[C@H](CN)NC(=O)CCCCCCCCCCCCCCCCC(=O)O)C(=O)N[C@H](CC(=O)N[C@H](CCCCN)C(N)=O)Cc2ccccc2)NC1=O)C(c1ccccc1)c1ccccc1)[C@@H](C)O` [compound 301] (Isovaleryl-E(OMe)TH[Dip]PCC[αMeK]([AEEA-AEEA-Dap-C18 diacid])[β3hF][dK]-NH2; disulfide 6-7): the IC50 on ferroportin [1] (setting [3]) lay within 10 to 100 nM. At ferroportin [2] (setting [4]), the DC50 was 10 to 100 nM.

With `CC[C@H](C)[C@@H]1NC(=O)[C@@H](NC(=O)[C@@H]2CCCN2C(=O)[C@@H](NC(=O)[C@H](Cc2c[nH]cn2)NC(=O)[C@@H](NC(=O)[C@H](CCC(=O)O)NC(=O)CC(C)C)[C@@H](C)O)C(c2ccccc2)c2ccccc2)CSSC[C@@H](C(N)=O)NC(=O)C[C@H](Cc2ccccc2)NC(=O)[C@H](CCCCNC(=O)COCCOCCNC(=O)COCCOCCNC(=O)CC[C@H](NC(=O)CCCCCCCCCCCCCCCCC(=O)O)C(=O)O)NC1=O` [Compd 32] (Isovaleryl-ETH[Dip]PCIK([AEEA-AEEA-γGlu-C18 diacid])[β3hF]C-NH2; disulfide 6-10), at ferroportin [1] (T47D cells, 0.5% mouse serum albumin, 1 hr incubation), the IC50 is 100 to 500 nM. Besides, the DC50 on ferroportin [2] (ferroportin-GFP HEK293 cells, at least 18 hours) lay within 10 to 100 nM.

As for `CC(C)CC(=O)N[C@@H](CCC(=O)O)C(=O)N[C@H](C(=O)N[C@@H](Cc1c[nH]cn1)C(=O)N[C@H](C(=O)N1CCC[C@H]1C(=O)N[C@H]1CSSC[C@@H](C(=O)N(C)[C@@H](CCCCNC(=O)COCCOCCNC(=O)COCCOCCNC(=O)[C@H](CN)NC(=O)CCCCCCCCCCCCCCCCC(=O)O)C(=O)N[C@H](CC(=O)N[C@@H](CCCN2CCOCC2)C(N)=O)Cc2ccccc2)NC1=O)C(c1ccccc1)c1ccccc1)[C@@H](C)O` [compound 265] (Isovaleryl-ETH[Dip]PCC[NMeK]([AEEA-AEEA-Dap-C18 diacid])[β3hF][Nva(5-morpholino)]-NH2; disulfide 6-7), the IC50 on ferroportin [1] (setting [3]) lay in the range of 10 to 100 nM. Besides, on ferroportin [2] (setting [4]), the DC50 was 10 to 100 nM. For `CCCCCCCCCCCCCCCC(=O)NCC[N+](C)(C)CC(=O)NCCCCCC(=O)NCCCC[C@@H](C(=O)N[C@H](C(=O)N[C@H](CCCCN)C(N)=O)C(c1ccccc1)c1ccccc1)N(C)C(=O)[C@@H]1CSSC[C@H](NC(=O)[C@@H]2CCCN2C(=O)[C@@H](NC(=O)[C@H](Cc2cnc[nH]2)NC(=O)[C@@H](NC(=O)[C@H](CCC(=O)O)N(C)C(=O)CC(C)C)[C@@H](C)O)C(c2ccccc2)c2ccccc2)C(=O)N1` [compound 167] (Isovaleryl-[NMeE]TH[Dip]PCC[NMeK]([Ahx-X5])[Dip][dK]-NH2; disulfide 6-7), the IC50 at ferroportin [1] (setting [5]) lay in the range of 1 to 10 nM. Still for that read-out and setting: the same measure for `CCCCCCCCCCCCCCCC(=O)NCCCCCC(=O)NCCCC[C@@H](C(=O)N[C@H](C(=O)N[C@H](CCCCN)C(N)=O)C(c1ccccc1)c1ccccc1)N(C)C(=O)[C@@H]1CSSC[C@H](NC(=O)[C@@H]2CCCN2C(=O)[C@@H](NC(=O)[C@H](Cc2cnc[nH]2)NC(=O)[C@@H](NC(=O)[C@H](CCC(=O)O)N(C)C(=O)CC(C)C)[C@@H](C)O)C(c2ccccc2)c2ccccc2)C(=O)N1` [compound 166] (Isovaleryl-[NMeE]TH[Dip]PCC[NMeK]([Ahx-Palmitoyl])[Dip][dK]-NH2; disulfide 6-7): 1 to 10 nM; for `CC(C)CC(=O)N[C@@H](CCC(=O)O)C(=O)N(C)[C@H](C(=O)N[C@@H](Cc1c[nH]cn1)C(=O)N[C@H](C(=O)N1CCC[C@H]1C(=O)N[C@H]1CSSC[C@@H](C(=O)N(C)[C@@H](CCCCNC(=O)C[N+](C)(C)CCNC(=O)CCCCCCCCCCCCCCCCC(=O)O)C(=O)N[C@H](C(=O)N[C@H](CCCCN)C(N)=O)C(c2ccccc2)c2ccccc2)NC1=O)C(c1ccccc1)c1ccccc1)[C@@H](C)O` [compound 187] (Isovaleryl-E[NMeT]H[Dip]PCC[NMeK](X1)[Dip][dK]-NH2; disulfide 6-7): 10 to 100 nM. In the case of `CCCCCCCCCCCCCCCC(=O)NCC[N+](C)(C)CC(=O)NCCCC[C@@H](C(=O)N[C@H](C(=O)N[C@H](CCCCN)C(N)=O)C(c1ccccc1)c1ccccc1)N(C)C(=O)[C@@H]1CSSC[C@H](NC(=O)[C@@H]2CCCN2C(=O)[C@@H](NC(=O)[C@H](Cc2cnc[nH]2)NC(=O)[C@@H]2[C@H](O)CCN2C(=O)[C@H](CCC(=O)O)NC(=O)CC(C)C)C(c2ccccc2)c2ccccc2)C(=O)N1` [compound 152] (Isovaleryl-E[Pro(3R-OH)]H[Dip]PCC[NMeK](X5)[Dip][dK]-NH2; disulfide 6-7), the IC50 on ferroportin [1] (setting [5]) fell in the range of 1 to 10 nM. Still for that read-out and setting: the same measure for `CC(C)CC(=O)N[C@@H](CCC(=O)O)C(=O)N[C@H](C(=O)N[C@@H](Cc1cnc[nH]1)C(=O)N[C@H](C(=O)N1CCC[C@H]1C(=O)N[C@H]1CSSC[C@@H](C(=O)N(C)[C@@H](CCCCNC(=O)COCCOCCNC(=O)COCCOCCNC(=O)C[N+](C)(C)CCNC(=O)CCCCCCCCCCCCCCCCC(=O)O)C(=O)N[C@H](CC(=O)N[C@H](CCCCN)C(N)=O)Cc2ccccc2)NC1=O)C(c1ccccc1)c1ccccc1)[C@@H](C)O` [compound 159] (Isovaleryl-ETH[Dip]PCC[NMeK]([AEEA-AEEA-X1])[β3hF][dK]-NH2; disulfide 6-7): 10 to 100 nM. With `CC(C)CC(=O)N[C@@H](CCC(=O)O)C(=O)N[C@H](C(=O)N[C@@H](Cc1c[nH]cn1)C(=O)N[C@H](C(=O)N1CCC[C@H]1C(=O)N[C@H]1CSSC[C@@H](C(=O)N(C)[C@@H](CCCCNC(=O)COCCOCCNC(=O)COCCOCCNC(=O)[C@H](CN)NC(=O)CCCCCCCCCCCCCCCCC(=O)O)C(=O)N(C)[C@@H](Cc2ccccc2)C(=O)N[C@H](CCCCN)C(N)=O)N(C)C1=O)C(c1ccccc1)c1ccccc1)[C@@H](C)O` [compound 266] (Isovaleryl-ETH[Dip]PC[NMeC][NMeK]([AEEA-AEEA-Dap-C18 diacid])[NMeF][dK]-NH2; disulfide 6-7), on ferroportin [1] (setting [3]), the IC50 was 10 to 100 nM. In the case of `COC(=O)CC[C@H](NC(=O)CC(C)C)C(=O)N(C)[C@H](C(=O)N[C@@H](Cc1c[nH]cn1)C(=O)N[C@H](C(=O)N1CCC[C@H]1C(=O)N[C@H]1CSSC[C@@H](C(=O)N(C)[C@@H](CCCCNC(=O)C[N+](C)(C)CCNC(=O)CCCCCCCCCCCCCCCCC(=O)O)C(=O)N[C@H](C(N)=O)C(c2ccccc2)c2ccccc2)NC1=O)C(c1ccccc1)c1ccccc1)[C@@H](C)O` [compound 186] (Isovaleryl-E(OMe)[NMeT]H[Dip]PCC[NMeK](X1)[Dip]-NH2; disulfide 6-7), the IC50 on ferroportin [1] (setting [5]) lay in the range of 100 to 500 nM. Turning to `CC(C)CC(=O)N[C@@H](CCC(=O)O)C(=O)N1CC[C@@H](O)[C@H]1C(=O)N[C@@H](Cc1c[nH]cn1)C(=O)N[C@H](C(=O)N1CCC[C@H]1C(=O)N[C@H]1CSSC[C@@H](C(=O)N(C)[C@@H](CCCCNC(=O)CCCCCNC(=O)C[N+](C)(C)CCNC(=O)CCCCCCCCCCCCCCCCC(=O)O)C(=O)N[C@H](C(N)=O)C(c2ccccc2)c2ccccc2)NC1=O)C(c1ccccc1)c1ccccc1` [compound 154] (Isovaleryl-E[Pro(3R-OH)]H[Dip]PCC[NMeK]([Ahx-X1])[Dip]-NH2; disulfide 6-7), the IC50 at ferroportin [1] (setting [5]) was in the range of 10 to 100 nM. Same read-out and setting: next, `CC(C)CC(=O)N[C@@H](CCC(=O)O)C(=O)N(C)[C@H](C(=O)N[C@@H](Cc1c[nH]cn1)C(=O)N[C@H](C(=O)N1CCC[C@H]1C(=O)N[C@H]1CSSC[C@@H](C(=O)N(C)[C@@H](CCCCNC(=O)CCCCCNC(=O)C[N+](C)(C)CCNC(=O)CCCCCCCCCCCCCCCCC(=O)O)C(=O)N[C@H](C(N)=O)C(c2ccccc2)c2ccccc2)NC1=O)C(c1ccccc1)c1ccccc1)[C@@H](C)O` [compound 189] (Isovaleryl-E[NMeT]H[Dip]PCC[NMeK]([Ahx-X1])[Dip]-NH2; disulfide 6-7): 100 to 500 nM; `CCCCCCCCCCCCCCCC(=O)NCCCCCC(=O)NCCCC[C@@H](C(=O)N[C@H](C(=O)N[C@H](CCCCN)C(N)=O)C(c1ccccc1)c1ccccc1)N(C)C(=O)[C@@H]1CSSC[C@H](NC(=O)[C@@H]2CCCN2C(=O)[C@@H](NC(=O)[C@H](Cc2cnc[nH]2)NC(=O)[C@H]([C@@H](C)O)N(C)C(=O)[C@H](CCC(=O)O)NC(=O)CC(C)C)C(c2ccccc2)c2ccccc2)C(=O)N1` [compound 173] (Isovaleryl-E[NMeT]H[Dip]PCC[NMeK]([Ahx-Palmitoyl])[Dip][dK]-NH2; disulfide 6-7): 1 to 10 nM.
